Test results reported in patent US20190374627A1, “TARGET PEPTIDES FOR CANCER THERAPY AND DIAGNOSTICS” (priority 2016, published 2019).
“Also recorded” adds a separate entry of the source. Square brackets hold non-standard residues; d marks the D form. Ends that are not written are not given here. pS = N[C@@H](COP(=O)(O)O)C(=O)O

How the values were obtained:
CD8^+ T cells (PBMCs) [1] = assay: Ex vivo ICS of PBMCs after stimulation for 4 hours with the peptide; type: cell-based, human; conditions: PBMCs of a patient with hereditary hemochromatosis, 4 hours stimulation
CD8^+ T cells (PBMCs) [2] = assay: Intracellular cytokine staining (ICS) of PBMCs after 7 days of stimulation with MHC-I-pP (healthy donors, HH patients); type: cell-based, human
Method in brief: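 PBMCs or liver lymphocytes from HLA-A*0201-positive healthy donors and hereditary hemochromatosis patients were stimulated for 7 days with HLA-A*0201-restricted phosphopeptides and no added cytokines. After exclusion of doublets and dead cells with a fixable viability dye, CD3^+CD8^+ cells were analysed by intracellular staining for IFN-γ and TNF-α, plus CD107a where needed.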

[3] = tested on: unexpanded lymphocyte cultures (CD8^+ T cells); assay: ICS for MHC-I-pP reactivity of lymphocyte cultures without expansion (Table 23, No Expansion)
[4] = tested on: expanded TIL / IHL cultures; assay: ICS for MHC-I-pP reactivity of liver-derived lymphocyte cultures after unspecific rapid expansion protocol (REP); type: cell-based, human
[5] = tested on: expanded lymphocyte cultures from deceased donor livers, cirrhotic livers and HCC; assay: ICS for MHC-I-pP reactivity of liver-derived lymphocyte cultures after phosphopeptide-specific expansion; type: cell-based, human

RVAsPTSGV: IRS2 phosphopeptide, HLA-A*0201 (RVA[pS]PTSGV; listed as Homo sapiens)
ex vivo CD8^+ T cell response (CD8^+ T cells (PBMCs) [1]): evident ex vivo; also recorded: ex vivo CD8^+ T cell response | Reactive CD8^+ T cell population, HH2 (CD8^+ T cells (PBMCs) [2]; HH patient HH2): 0 (<0.25% reactive CD8^-+ T cells) | Reactive CD8^+ T cell population, HH3 (CD8^+ T cells (PBMCs) [2]; HH patient HH3): 0 (<0.25% reactive CD8^-+ T cells) | Reactive CD8^+ T cell population, HH6 (CD8^+ T cells (PBMCs) [2]; HH patient HH6): 0 (<0.25% reactive CD8^-+ T cells) | Reactive CD8^+ T cell population, HH8 (CD8^+ T cells (PBMCs) [2]; HH patient HH8): 0 (<0.25% reactive CD8^-+ T cells) | Reactive CD8^+ T cell population, HH10 (CD8^+ T cells (PBMCs) [2]; HH patient HH10): 2 (2.5-5.0% reactive CD8^-+ T cells) | Reactive CD8^+ T cell population, HH11 (CD8^+ T cells (PBMCs) [2]; HH patient HH11): 0 (<0.25% reactive CD8^-+ T cells) | Reactive CD8^+ T cell population, HD1 (CD8^+ T cells (PBMCs) [2]; Healthy donor HD1): 0 (<0.25% reactive CD8^-+ T cells) | Reactive CD8^+ T cell population, HD2 (CD8^+ T cells (PBMCs) [2]; Healthy donor HD2): 0 (<0.25% reactive CD8^-+ T cells) | Reactive CD8^+ T cell population, HD3 (CD8^+ T cells (PBMCs) [2]; Healthy donor HD3): 0 (<0.25% reactive CD8^-+ T cells) | Reactive CD8^+ T cell population, HD4 (CD8^+ T cells (PBMCs) [2]; Healthy donor HD4): 0 (<0.25% reactive CD8^-+ T cells) | Reactive CD8^+ T cell population, HD5 (CD8^+ T cells (PBMCs) [2]; Healthy donor HD5): 0 (<0.25% reactive CD8^-+ T cells) | Reactive CD8^+ T cells, No Expansion, Do4 ([3]; Do4): 3 (5-7.5% reactive CD8^-+ T cells) | Reactive CD8^+ T cells, No Expansion, HH6 ([3]; HH6): 0 (<0.25% reactive CD8^-+ T cells) | Reactive CD8^+ T cells, Non-specific Expansion, Do2 ([4]; Do2): 0 (<0.25% reactive CD8^-+ T cells) | Reactive CD8^+ T cells, Non-specific Expansion, Do4 ([4]; Do4): 0 (<0.25% reactive CD8^-+ T cells) | Reactive CD8^+ T cells, Non-specific Expansion, HH6 ([4]; HH6): 0 (<0.25% reactive CD8^-+ T cells) | Reactive CD8^+ T cells, pP-specific Expansion, Do2 ([5]; pP-specific Expansion, Do2): 0 (<0.25% reactive CD8^-+ T cells) | Reactive CD8^+ T cells, pP-specific Expansion, Do4 ([5]; pP-specific Expansion, Do4): 2 (2.5-5.0% reactive CD8^-+ T cells) | Reactive CD8^+ T cells, pP-specific Expansion, HH6 ([5]; pP-specific Expansion, HH6): 0 (<0.25% reactive CD8^-+ T cells) | ppCTL response, Deceased Donor Liver Do 2 ([5]; pP-specifically expanded culture, Deceased Donor Liver Do 2): 0 (<0.25% reactive CD8-+ T cells) | ppCTL response, Deceased Donor Liver Do 3 ([5]; pP-specifically expanded culture, Deceased Donor Liver Do 3): 0 (<0.25% reactive CD8-+ T cells) | ppCTL response, Deceased Donor Liver Do 4 ([5]; pP-specifically expanded culture, Deceased Donor Liver Do 4): 2 (2.5-5.0% reactive CD8-+ T cells) | ppCTL response, Deceased Donor Liver Do 6 ([5]; pP-specifically expanded culture, Deceased Donor Liver Do 6): 1 (0.25-2.5% reactive CD8-+ T cells) | ppCTL response, End-stage Liver Cirrhosis IHL 11 ([5]; pP-specifically expanded culture, End-stage Liver Cirrhosis IHL 11): 0 (<0.25% reactive CD8-+ T cells) | ppCTL response, End-stage Liver Cirrhosis IHL 12 ([5]; pP-specifically expanded culture, End-stage Liver Cirrhosis IHL 12): 0 (<0.25% reactive CD8-+ T cells) | ppCTL response, End-stage Liver Cirrhosis IHL 13 ([5]; pP-specifically expanded culture, End-stage Liver Cirrhosis IHL 13): 0 (<0.25% reactive CD8-+ T cells) | ppCTL response, End-stage Liver Cirrhosis IHL 15 ([5]; pP-specifically expanded culture, End-stage Liver Cirrhosis IHL 15): 0 (<0.25% reactive CD8-+ T cells) | ppCTL response, HCC Distal HCC 1 ([5]; pP-specifically expanded culture, HCC 1 Distal): 0 (<0.25% reactive CD8-+ T cells) | ppCTL response, HCC Tumor HCC 1 ([5]; pP-specifically expanded culture, HCC 1 Tumor): 0 (<0.25% reactive CD8-+ T cells) | ppCTL response, HCC Distal HCC 4 ([5]; pP-specifically expanded culture, HCC 4 Distal): 0 (<0.25% reactive CD8-+ T cells) | ppCTL response, HCC Distal HCC 9 ([5]; pP-specifically expanded culture, HCC 9 Distal): 0 (<0.25% reactive CD8-+ T cells) | ppCTL response, HCC Tumor HCC 9 ([5]; pP-specifically expanded culture, HCC 9 Tumor): 0 (<0.25% reactive CD8-+ T cells) | ppCTL response, HCC Distal HCC 12 ([5]; pP-specifically expanded culture, HCC 12 Distal): 0 (<0.25% reactive CD8-+ T cells)
